Laboratory results reported in patent publication US10689354B2, “Aminoazole derivative” (Teijin Pharma Limited, priority 2015, dated 2020).

Tests used:
human androgen receptor = biological target: T1, human androgen receptor (Homo sapiens, UniProt P10275); experiment: Reporter assay of an androgen receptor responsive sequence (luciferase, transiently transfected HEK293 cells); format: cell-based; conditions: 24 hours incubation, relative to activity of 100 nM DHT, read-out: AR transcriptive activity (pEC50) (converted)
T1 construct: expressed in transfected cells; host or cells: HEK293
T1 sequence (P10275 1-920): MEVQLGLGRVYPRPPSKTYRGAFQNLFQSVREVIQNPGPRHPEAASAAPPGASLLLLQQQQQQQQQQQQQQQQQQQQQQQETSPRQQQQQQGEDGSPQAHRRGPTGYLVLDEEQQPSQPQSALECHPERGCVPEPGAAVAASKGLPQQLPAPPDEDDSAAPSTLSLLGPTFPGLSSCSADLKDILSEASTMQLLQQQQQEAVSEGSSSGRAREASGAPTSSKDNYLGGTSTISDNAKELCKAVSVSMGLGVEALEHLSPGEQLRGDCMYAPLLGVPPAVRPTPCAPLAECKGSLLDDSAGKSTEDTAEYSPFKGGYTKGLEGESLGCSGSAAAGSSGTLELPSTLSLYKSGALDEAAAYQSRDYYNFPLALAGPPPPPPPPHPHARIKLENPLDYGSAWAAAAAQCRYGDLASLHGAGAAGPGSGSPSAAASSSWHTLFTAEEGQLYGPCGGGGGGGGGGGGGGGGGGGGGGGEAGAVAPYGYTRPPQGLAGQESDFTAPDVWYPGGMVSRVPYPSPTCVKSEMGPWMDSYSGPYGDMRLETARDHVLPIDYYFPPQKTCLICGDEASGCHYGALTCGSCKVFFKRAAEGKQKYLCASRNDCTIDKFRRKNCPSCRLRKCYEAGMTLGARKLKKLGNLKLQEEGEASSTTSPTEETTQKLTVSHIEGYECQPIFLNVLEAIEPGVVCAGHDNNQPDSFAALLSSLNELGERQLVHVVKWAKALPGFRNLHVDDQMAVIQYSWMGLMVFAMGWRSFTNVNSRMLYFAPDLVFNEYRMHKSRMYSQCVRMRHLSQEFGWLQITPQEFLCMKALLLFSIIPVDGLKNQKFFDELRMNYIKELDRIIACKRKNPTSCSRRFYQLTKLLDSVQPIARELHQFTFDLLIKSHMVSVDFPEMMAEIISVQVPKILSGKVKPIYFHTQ
In short: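 Agonism scored as pEC50, fitted by 4-parameter curve against the response to 100 nM DHT, from dual-luciferase readout after 24 h compound treatment. Cells were HEK293 co-transfected (3 h) with human AR expression vector, androgen-responsive firefly reporter and Renilla control, in charcoal-stripped serum.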

[1] = biological target: T2, androgen receptor (AR-LBD) (Rattus norvegicus, UniProt P15207); experiment: Evaluation of androgen receptor affinity (PolarScreen Androgen Receptor Competitor Assay Kit, Red; fluorescence polarization); conditions: 22° C. for 5 hours, relative to binding rate of 1 μM DHT, read-out: AR affinity (pEC50) (converted)
T2 construct: 5 μL of 2×AR-LBD/Fluoromone AL Red Complex contained in the kit; purchased Invitrogen
T2 sequence (P15207 651-882 limits assumed): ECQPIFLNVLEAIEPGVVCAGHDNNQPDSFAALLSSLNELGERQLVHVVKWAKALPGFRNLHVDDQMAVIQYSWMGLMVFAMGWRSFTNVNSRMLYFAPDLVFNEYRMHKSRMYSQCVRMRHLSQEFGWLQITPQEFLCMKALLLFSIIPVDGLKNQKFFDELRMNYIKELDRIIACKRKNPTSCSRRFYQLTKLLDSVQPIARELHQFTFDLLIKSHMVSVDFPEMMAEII
In short: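 FP competition: compound + AR-LBD/Fluoromone AL Red tracer complex, 22° C, 5 h. Reference 1 μM DHT binding rate; pEC50 by 4-parameter fit.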

Structure (SMILES)	EC50 (human androgen receptor)	EC50 [1]
COc1ccccc1CCN(c1ccc(C#N)cc1)c1nc(C(=O)NS(C)(=O)=O)c(C)s1 [Compound 376, 2-[4-cyano-N-[2-(2-methoxyphenyl)ethyl]anilino]-5-methyl-N-methylsulfonyl-thiazole-4-carboxamide]	6310 nM	100 nM
Cc1sc(N(Cc2ccccc2SC(F)(F)F)c2ccc(C#N)cc2)nc1C(=O)NS(C)(=O)=O [Compound 56, 2-[4-cyano-N-[[2-(trifluoromethylsulfanyl)phenyl]methyl]anilino]-5-methyl-N-methylsulfonyl-thiazole-4-carboxamide]	6310 nM	63.1 nM
Cc1sc(N(Cc2ccc(C3CC3)cc2)c2ccc(C#N)cc2)nc1C(=O)NS(C)(=O)=O [Compound 588, 2-[4-cyano-N-[(4-cyclopropylphenyl)methyl]anilino]-5-methyl-N-methylsulfonyl-thiazole-4-carboxamide]	200 nM	31.6 nM
CCC(CC)CN(c1ccc(C#N)cc1)c1nc(C(=O)NS(C)(=O)=O)c(C)s1 [Compound 65, 2-[4-cyano-N-(2-ethylbutyl)anilino]-5-methyl-N-methylsulfonyl-thiazole-4-carboxamide]	> 10000 nM	126 nM
Cc1sc(N(Cc2ccco2)c2ccc(C#N)cc2)nc1C(=O)NS(C)(=O)=O [Compound 87, 2-[4-cyano-N-(2-furylmethyl)anilino]-5-methyl-N-methylsulfonyl-thiazole-4-carboxamide]	1000 nM	158 nM
Cc1sc(N(Cc2ccc(C3CC3)nc2)c2ccc(C#N)cc2)nc1C(=O)NS(C)(=O)=O [Compound 593, 2-[4-cyano-N-[(6-cyclopropyl-3-pyridyl)methyl]anilino]-5-methyl-N-methylsulfonyl-thiazole-4-carboxamide]	200 nM	251 nM
Cc1oc(N(Cc2ccccc2)c2ccc(C#N)cc2)nc1C(=O)NS(C)(=O)=O [Compound 598, 2-(N-benzyl-4-cyano-anilino)-5-methyl-N-methylsulfonyl-oxazole-4-carboxamide]	2000 nM	251 nM
Cc1oc(N(Cc2ccccc2)c2ccc(C(F)(F)F)nc2)nc1C(=O)NS(C)(=O)=O [Compound 620, 2-[benzyl-[6-(trifluoromethyl)-3-pyridyl]amino]-5-methyl-N-methylsulfonyl-oxazole-4-carboxamide]	> 10000 nM	631 nM
Cc1sc(N(Cc2cccc(OC(C)C)c2)c2ccc(C#N)cc2)nc1C(=O)NS(C)(=O)=O [Compound 585, 2-[4-cyano-N-[(3-isopropoxyphenyl)methyl]anilino]-5-methyl-N-methylsulfonyl-thiazole-4-carboxamide]	501 nM	79.4 nM
Cc1sc(N(Cc2ccc(Cl)cc2)[C@H]2C[C@@H]2c2ccccc2)nc1C(=O)NS(C)(=O)=O (racemic) [Compound 150, 2-[(4-chlorophenyl)methyl-(trans-2-phenylcyclopropyl)amino]-5-methyl-N-methylsulfonyl-thiazole-4-carboxamide]	631 nM	79.4 nM
CS(=O)(=O)NC(=O)c1nc(N(Cc2ccc(OC(F)F)cc2)c2ccc(C#N)cc2)sc1C1CC1 [Compound 662, 2-[4-cyano-N-[[4-(difluoromethoxy)phenyl]methyl]anilino]-5-cyclopropyl-N-methylsulfonyl-thiazole-4-carboxamide]	5010 nM	20 nM
Cc1sc(N(Cc2ccccc2)c2ccc(C#N)cc2)nc1C(=O)NS(C)(=O)=O [Compound 1, 2-(N-benzyl-4-cyano-anilino)-5-methyl-N-methylsulfonyl-thiazole-4-carboxamide]	79.4 nM	63.1 nM
CCc1oc(N(Cc2ccc(OC(F)F)cn2)c2ccc(C#N)cc2)nc1C(=O)NS(C)(=O)=O [Compound 635, 2-[4-cyano-N-[[5-(difluoromethoxy)-2-pyridyl]methyl]anilino]-5-ethyl-N-methylsulfonyl-oxazole-4-carboxamide]	> 10000 nM	398 nM
COCCCS(=O)(=O)NC(=O)c1nc(N(Cc2ccc(C(F)(F)F)nc2)c2ccc(C#N)cc2)sc1C1CC1 [Compound 663, 2-[4-cyano-N-[[6-(trifluoromethyl)-3-pyridyl]methyl]anilino]-5-cyclopropyl-N-(3-methoxypropylsulfonyl)thiazole-4-carboxamide]	> 10000 nM	251 nM

The next lines start with the values.

EC50 (human androgen receptor)	EC50 [1]	Structure (SMILES)
> 10000 nM	100 nM	Cc1sc(N(CCC2CCCCC2)Cc2ccccc2)nc1C(=O)NS(C)(=O)=O [Example 298, 2-[benzyl(2-cyclohexylethyl)amino]-5-methyl-N-methylsulfonyl-thiazole-4-carboxamide]
50.1 nM	25.1 nM	Cc1sc(N(Cc2cccc(Cl)c2)c2ccc(C#N)cc2)nc1C(=O)NS(C)(=O)=O [Compound 18, 2-[N-[(3-chlorophenyl)methyl]-4-cyano-anilino]-5-methyl-N-methylsulfonyl-thiazole-4-carboxamide]
200 nM	50.1 nM	CSc1ccccc1CN(c1ccc(C#N)cc1)c1nc(C(=O)NS(C)(=O)=O)c(C)s1 [Compound 452, 2-[4-cyano-N-[(2-methylsulfanylphenyl)methyl]anilino]-5-methyl-N-methylsulfonyl-thiazole-4-carboxamide]
631 nM	200 nM	Cc1sc(N(CCn2cc(Cl)cn2)Cc2ccccc2)nc1C(=O)NS(C)(=O)=O [Compound 709, 2-[benzyl-[2-(4-chloropyrazol-1-yl)ethyl]amino]-5-methyl-N-methylsulfonyl-thiazole-4-carboxamide]
79.4 nM	31.6 nM	COc1ccc(CN(c2ccc(C#N)cc2)c2nc(C(=O)NS(C)(=O)=O)c(C)s2)c(F)c1F [Compound 112, 2-[4-cyano-N-[(2,3-difluoro-4-methoxy-phenyl)methyl]anilino]-5-methyl-N-methylsulfonyl-thiazole-4-carboxamide]
200 nM	31.6 nM	COCCCS(=O)(=O)NC(=O)c1nc(N(Cc2ccc(OC(F)(F)F)cc2)c2ccc(C#N)cc2)sc1C [Compound 157, 2-[4-cyano-N-[[4-(trifluoromethoxy)phenyl]methyl]anilino]-N-(3-methoxypropylsulfonyl)-5-methyl-thiazole-4-carboxamide]
> 10000 nM	200 nM	Cc1cc(CN(CCc2ccc(OC(F)(F)F)cc2)c2nc(C(=O)NS(C)(=O)=O)c(C)s2)no1 [Compound 509, 5-methyl-2-[(5-methylisoxazol-3-yl)methyl-[2-[4-(trifluoromethoxy)phenyl]ethyl]amino]-N-methylsulfonyl-thiazole-4-carboxamide]
1000 nM	501 nM	Cc1sc(N(Cc2ncc(F)cc2Cl)c2ccc(C#N)cc2)nc1C(=O)NS(C)(=O)=O [Example 179, 2-[N-[(3-chloro-5-fluoro-2-pyridyl)methyl]-4-cyano-anilino]-5-methyl-N-methylsulfonyl-thiazole-4-carboxamide]
158 nM	50.1 nM	COCCCS(=O)(=O)NC(=O)c1nc(N(Cc2ccc(OC(F)F)cc2)c2ccc(C#N)cc2)sc1C [Example 165, 2-[4-cyano-N-[[4-(difluoromethoxy)phenyl]methyl]anilino]-N-(3-methoxypropylsulfonyl)-5-methyl-thiazole-4-carboxamide]
1260 nM	79.4 nM	Cc1sc(N(CCc2ccc(C#N)cc2)Cc2ccc(Cl)cc2)nc1C(=O)NS(=O)(=O)C1CC1 [Compound 714, 2-[(4-chlorophenyl)methyl-[2-(4-cyanophenyl)ethyl]amino]-N-cyclopropylsulfonyl-5-methyl-thiazole-4-carboxamide]
